Here are results for 14 molecules from ChEMBL document CHEMBL2434908, “Synthesis and antibacterial evaluation of 3,3-diindolylmethane derivatives” (Med Chem Res, 2013).

For data set [1], the system named is Rhodococcus. In words: Antibacterial activity against Rhodococcus Sp. assessed as growth inhibition by agar plate method. In kind it is functional.
The test system of data set [2] is Staphylococcus aureus. The data set is described as follows: Antibacterial activity against Staphylococcus aureus assessed as growth inhibition by agar plate method. In kind it is functional.
In data set [3] the test system is Arthrobacter protophormiae. In words: Antibacterial activity against Arthrobacter protophormiae assessed as growth inhibition by agar plate method. To be noted: Glutamicibacter protophormiae. In kind it is functional.
Data set [4] concerns Proteus mirabilis. The data set is described as follows: Antibacterial activity against Proteus mirabilis assessed as growth inhibition by agar plate method. In kind it is functional.
Data set [5] relates to Escherichia coli. The data set is described as follows: Antibacterial activity against Escherichia coli assessed as growth inhibition by agar plate method. In kind it is functional.
In data set [6] the test system is Lactococcus lactis. In words: Antibacterial activity against Lactococcus lactis assessed as growth inhibition by agar plate method. In kind it is functional.
In data set [7] the test system is Shigella flexneri. In words: Antibacterial activity against Shigella flexneri assessed as growth inhibition by agar plate method. In kind it is functional.
For data set [8], the system named is Mycolicibacterium smegmatis. The data set is described as follows: Antibacterial activity against Mycobacterium smegmatis assessed as growth inhibition by agar plate method. In kind it is functional.
Data set [9] deals with Bacillus subtilis. In words: Antibacterial activity against Bacillus subtilis assessed as growth inhibition by agar plate method. In kind it is functional.
The subject of data set [10] is Pseudomonas aeruginosa. In words: Antibacterial activity against Pseudomonas aeruginosa assessed as growth inhibition by agar plate method. In kind it is functional.
The nature of data set [11]: Hemolytic activity in human RBC up to 200 ug/mL after 1 hr by spectrophotometric analysis relative to control. In kind it is ADME, cell-based, Erythrocyte. The settings on record: human red blood cells, read-out: Activity.
Data set [12] is described as follows: Hemolytic activity in human RBC up to 400 ug/mL after 1 hr by spectrophotometric analysis relative to control. In kind it is ADME, cell-based, Erythrocyte.
Data set [13] in a line: Hemolytic activity in human RBC at 12.5 ug/mL after 1 hr by spectrophotometric analysis relative to control. In kind it is ADME, cell-based, Erythrocyte. The settings on record: human red blood cells, read-out: Activity.

Usually MIC stands for the lowest concentration found to suppress growth.

The structures appear in SMILES notation. Converted amounts (≈) assume the structure as drawn.

Turning to `Cc1[nH]c2ccccc2c1Cc1c(C)[nH]c2ccccc12`, the minimal inhibitory concentration (MIC) in data set [1], in data set [2], in data set [3], in data set [4], in data set [5] and in data set [6] was greater than 500 µg/mL each time. Further, the minimal inhibitory concentration (MIC) in data set [7], in [8], in data set [9] and in data set [10] was greater than 500 µg/mL each time.

`c1ccc2c(Cc3c[nH]c4ccccc34)c[nH]c2c1` [ARUNDINE]: the MIC in [1] is 125 µg/mL (≈ 507 µM); in data set [2] it was 250 µg/mL (≈ 1010 µM); in [3], 125 µg/mL (≈ 507 µM); in data set [4], 250 µg/mL (≈ 1010 µM); in data set [5] it was 250 µg/mL (≈ 1010 µM); in data set [6] it was 500 µg/mL (≈ 2030 µM). The MIC in data set [7] came to 125 µg/mL (≈ 507 µM); in [8], 125 µg/mL (≈ 507 µM); in data set [9], 250 µg/mL (≈ 1010 µM); in [10] it was 250 µg/mL (≈ 1010 µM). Besides, the hemolysis at 1 h in data set [11] amounted to 20%.

Take `OC[C@@H](O)[C@@H](O)[C@@H](O)C(c1c[nH]c2ccccc12)c1c[nH]c2ccccc12`: the MIC is 15.5 µg/mL (≈ 42.3 µM) in data set [1]; 62.5 µg/mL (≈ 171 µM) in data set [2]; 62.5 µg/mL (≈ 171 µM) in data set [3]; 31.2 µg/mL (≈ 85.1 µM) in [4]; 62.5 µg/mL (≈ 171 µM) in data set [5]; 62.5 µg/mL (≈ 171 µM) in [6]. Moreover, the minimum inhibitory concentration (MIC) in [7] is 31.2 µg/mL (≈ 85.1 µM); in data set [8] it was 31.2 µg/mL (≈ 85.1 µM); in data set [9], 125 µg/mL (≈ 341 µM); in data set [10], 62.5 µg/mL (≈ 171 µM). Also, in [12] (human red blood cells, read-out: Activity), the hemolysis at 1 h worked out at 15%.

As to `c1ccc(-c2[nH]c3ccccc3c2Cc2c(-c3ccccc3)[nH]c3ccccc23)cc1`, the minimum inhibitory concentration (MIC) in data set [1], in [2], in data set [3], in data set [4], in [5] and in [6] was greater than 500 µg/mL throughout. Also, the minimal inhibitory concentration (MIC) in data set [7], in data set [8], in data set [9] and in [10] was greater than 500 µg/mL each time.

On to `c1ccc2c(C(c3c[nH]c4ccccc34)c3c[nH]c4ccccc34)c[nH]c2c1`, for which the MIC is 31.2 µg/mL (≈ 86.3 µM) in data set [1]; 250 µg/mL (≈ 692 µM) in data set [2]; 125 µg/mL (≈ 346 µM) in data set [3]; 250 µg/mL (≈ 692 µM) in data set [4]; 125 µg/mL (≈ 346 µM) in [5]; 500 µg/mL (≈ 1380 µM) in data set [6]. The MIC in data set [7] was 250 µg/mL (≈ 692 µM); in data set [8] it was 31.2 µg/mL (≈ 86.3 µM); in data set [9], 250 µg/mL (≈ 692 µM); in data set [10], 125 µg/mL (≈ 346 µM). In addition, the hemolysis at 1 h in [11] is 20%. Besides, the Activity entry in data set [12] (erythrocyte, 1 h) is on record as “Toxic”.

`COc1ccc2[nH]cc(Cc3c[nH]c4ccc(OC)cc34)c2c1`: the minimal inhibitory concentration (MIC) in [1], in data set [2], in [3], in data set [4], in [5] and in data set [6] was greater than 500 µg/mL in each case. Also, the MIC in data set [7], in [8], in data set [9] and in data set [10] was greater than 500 µg/mL each time.

For `c1coc(C(c2c[nH]c3ccccc23)c2c[nH]c3ccccc23)c1`, the MIC in [1] came out at 31.2 µg/mL (≈ 99.9 µM); in data set [2] it was 125 µg/mL (≈ 400 µM); in data set [3], 31.2 µg/mL (≈ 99.9 µM); in data set [4], 31.2 µg/mL (≈ 99.9 µM); in [5], 62.5 µg/mL (≈ 200 µM); in [6], 62.5 µg/mL (≈ 200 µM). Moreover, the MIC in [7] is 31.2 µg/mL (≈ 99.9 µM); in data set [8], 15.5 µg/mL (≈ 49.6 µM); in data set [9], 125 µg/mL (≈ 400 µM); in data set [10] it was 31.2 µg/mL (≈ 99.9 µM). In data set [13], the hemolysis at 1 h, 12.5 ug/mL is 50%.

With `CN(C)c1ccc(C(c2c[nH]c3ccccc23)c2c[nH]c3ccccc23)cc1`, the MIC in data set [1], in data set [2], in data set [3], in data set [4], in data set [5] and in data set [6] was greater than 500 µg/mL throughout. Also, the minimal inhibitory concentration (MIC) in [7], in data set [8], in data set [9] and in data set [10] was greater than 500 µg/mL throughout.

In the case of `Oc1ccccc1C(c1c[nH]c2ccccc12)c1c[nH]c2ccccc12`, the minimal inhibitory concentration (MIC) was 7.5 µg/mL (≈ 22.2 µM) in [1]; 15.5 µg/mL (≈ 45.8 µM) in [2]; 15.5 µg/mL (≈ 45.8 µM) in data set [3]; 15.5 µg/mL (≈ 45.8 µM) in [4]; 15.5 µg/mL (≈ 45.8 µM) in data set [5]; 31.2 µg/mL (≈ 92.2 µM) in [6]. In addition, the MIC in [7] is 15.5 µg/mL (≈ 45.8 µM); in [8], 6.5 µg/mL (≈ 19.2 µM); in [9], 15.5 µg/mL (≈ 45.8 µM); in data set [10], 62.5 µg/mL (≈ 185 µM). The hemolysis at 1 h in [11] turned out to be 20%.

In the case of `CN[C@@H]1[C@H](O[C@H]2[C@H](O[C@H]3[C@H](O)[C@@H](O)[C@H](N=C(N)N)[C@@H](O)[C@@H]3N=C(N)N)O[C@@H](C)[C@]2(O)C=O)O[C@@H](CO)[C@H](O)[C@H]1O` [STREPTOMYCIN], the MIC in data set [1] was determined as 0.75 µg/mL (≈ 1.29 µM); in data set [2] it was 12.5 µg/mL (≈ 21.5 µM); in data set [3], 0.75 µg/mL (≈ 1.29 µM); in data set [4], 1.25 µg/mL (≈ 2.15 µM); in data set [5], 6.25 µg/mL (≈ 10.7 µM); in data set [6], 1.5 µg/mL (≈ 2.58 µM). Besides, the minimal inhibitory concentration (MIC) in data set [7] was found to be 6.25 µg/mL (≈ 10.7 µM); in [8] it was 1.25 µg/mL (≈ 2.15 µM); in [9], 1.5 µg/mL (≈ 2.58 µM); in [10], 3.15 µg/mL (≈ 5.42 µM).

With `OC[C@@H](O)[C@H](O)[C@H](O)[C@@H](O)C(c1c[nH]c2ccccc12)c1c[nH]c2ccccc12`, the MIC in data set [1], in data set [2], in data set [3], in data set [4], in data set [5] and in data set [6] was greater than 500 µg/mL each time. For the same molecule, the MIC in data set [7], in data set [8], in [9] and in [10] was greater than 500 µg/mL in each case.

Take `c1cncc(C(c2c[nH]c3ccccc23)c2c[nH]c3ccccc23)c1`: the MIC amounted to 6.5 µg/mL (≈ 20.1 µM) in data set [1]; 32.2 µg/mL (≈ 99.6 µM) in [2]; 15.5 µg/mL (≈ 47.9 µM) in data set [3]; 15.5 µg/mL (≈ 47.9 µM) in [4]; 31.2 µg/mL (≈ 96.5 µM) in data set [5]; 15.5 µg/mL (≈ 47.9 µM) in data set [6]. For the same molecule, the MIC came to 15.5 µg/mL (≈ 47.9 µM) in data set [7], 31.2 µg/mL (≈ 96.5 µM) in data set [8], 15.5 µg/mL (≈ 47.9 µM) in data set [9] and 31.2 µg/mL (≈ 96.5 µM) in data set [10]. For the same molecule, in data set [11], the hemolysis at 1 h was 20%.

For the molecule `OC[C@@H](O)[C@@H](O)[C@H](O)[C@H](O)C(c1c[nH]c2ccccc12)c1c[nH]c2ccccc12`, the MIC in data set [1], in [2], in [3], in [4], in data set [5] and in data set [6] was greater than 500 µg/mL in each case. The MIC in data set [7], in data set [8], in [9] and in data set [10] was greater than 500 µg/mL throughout.

In the case of `OC[C@@H](O)[C@@H](O)[C@H](O)[C@@H](O)C(c1c[nH]c2ccccc12)c1c[nH]c2ccccc12`, the MIC in data set [1], in data set [2], in data set [3], in data set [4], in data set [5] and in data set [6] was greater than 500 µg/mL each time. Also, the MIC in data set [7], in [8], in data set [9] and in data set [10] was greater than 500 µg/mL in each case.
